Laboratory results published in ChEMBL document CHEMBL2073998, “Piperine, a major constituent of black pepper, inhibits human P-glycoprotein and CYP3A4” (J Pharmacol Exp Ther, 2002).
pIC50: −log10 of the molar value.

Experiments:
[1] = biological target: T1, ATP-dependent translocase ABCB1 (Homo sapiens, UniProt P08183); experiment: TP_TRANSPORTER: inhibition of Cyclosporin A transepithelial transport (basal to apical) (Cyclosporin A: 1 uM) in Caco-2 cells; assay type: functional, cell-based
[2] = biological target: T1, ATP-dependent translocase ABCB1; experiment: TP_TRANSPORTER: inhibition of Digoxin transepithelial transport (basal to apical) (Digoxin: 5 uM) in Caco-2 cells; assay type: functional, cell-based

T1 sequence (P08183 whole entry): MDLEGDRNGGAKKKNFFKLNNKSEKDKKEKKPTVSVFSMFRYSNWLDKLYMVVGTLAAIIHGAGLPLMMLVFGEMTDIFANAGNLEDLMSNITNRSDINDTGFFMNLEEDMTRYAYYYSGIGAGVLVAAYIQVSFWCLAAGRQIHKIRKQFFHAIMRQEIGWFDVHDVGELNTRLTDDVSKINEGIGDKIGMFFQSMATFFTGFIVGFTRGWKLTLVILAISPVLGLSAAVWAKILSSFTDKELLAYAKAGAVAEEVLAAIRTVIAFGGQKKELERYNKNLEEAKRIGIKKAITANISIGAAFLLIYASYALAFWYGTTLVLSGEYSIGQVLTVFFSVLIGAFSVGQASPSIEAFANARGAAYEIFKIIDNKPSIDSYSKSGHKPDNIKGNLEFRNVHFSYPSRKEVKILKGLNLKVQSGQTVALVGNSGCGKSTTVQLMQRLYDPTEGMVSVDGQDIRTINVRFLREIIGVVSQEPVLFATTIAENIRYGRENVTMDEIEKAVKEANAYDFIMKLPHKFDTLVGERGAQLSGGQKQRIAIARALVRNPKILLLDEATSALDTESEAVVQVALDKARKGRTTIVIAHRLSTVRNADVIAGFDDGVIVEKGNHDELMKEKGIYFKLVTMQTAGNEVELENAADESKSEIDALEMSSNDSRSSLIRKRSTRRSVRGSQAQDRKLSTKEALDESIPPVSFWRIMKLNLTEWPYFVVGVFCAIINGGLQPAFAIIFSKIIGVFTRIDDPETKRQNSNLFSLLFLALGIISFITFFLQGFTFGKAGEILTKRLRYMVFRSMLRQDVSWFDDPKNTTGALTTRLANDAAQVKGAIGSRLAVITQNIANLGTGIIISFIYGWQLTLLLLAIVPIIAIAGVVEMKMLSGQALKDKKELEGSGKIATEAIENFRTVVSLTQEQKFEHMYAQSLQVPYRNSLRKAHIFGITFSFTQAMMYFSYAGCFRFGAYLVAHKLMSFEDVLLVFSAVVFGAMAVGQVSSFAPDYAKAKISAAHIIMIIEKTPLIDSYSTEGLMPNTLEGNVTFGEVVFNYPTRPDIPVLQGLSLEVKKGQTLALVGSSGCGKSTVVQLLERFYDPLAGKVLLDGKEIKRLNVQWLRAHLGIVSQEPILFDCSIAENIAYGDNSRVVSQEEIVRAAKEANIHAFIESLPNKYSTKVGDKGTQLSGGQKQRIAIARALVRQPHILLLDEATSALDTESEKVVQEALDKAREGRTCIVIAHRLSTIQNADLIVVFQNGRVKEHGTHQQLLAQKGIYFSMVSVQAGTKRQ

- pIC50 [1]: 4.13
- pIC50 [2]: 4.81
SMILES: O=C(/C=C/C=C/c1ccc2c(c1)OCO2)N1CCCCC1 [PIPERINE]
